Measured values: article PMC8188212, “Multi‐Arm PEG/Peptidomimetic Conjugate Inhibitors of DR6/APP Interaction Block Hematogenous Tumor Cell Extravasation” (Advanced Science, 2021)
Square brackets hold non-standard residues; d marks the D form. Side chains are listed from the residue outwards. Ends that are not written are not given here. Peptide text beside a SMILES is read from it. * marks the point of attachment. maleimide = maleimide: 4-arm PEG5k maleimide reacting with the C-terminal Cys thiol; Cbz = O=C(OCc1ccccc1)*; CH2F = FC*

T1: death receptor 6 (DR6) protein (UniProt O75509 42-349, labelled with RED-tris-NTA second-generation dye)
T1 construct: death receptor 6 (DR6), bought recombinant protein; source: bought: Sino Biology, Inc. (Shanghai, China)
T1 sequence (looked up): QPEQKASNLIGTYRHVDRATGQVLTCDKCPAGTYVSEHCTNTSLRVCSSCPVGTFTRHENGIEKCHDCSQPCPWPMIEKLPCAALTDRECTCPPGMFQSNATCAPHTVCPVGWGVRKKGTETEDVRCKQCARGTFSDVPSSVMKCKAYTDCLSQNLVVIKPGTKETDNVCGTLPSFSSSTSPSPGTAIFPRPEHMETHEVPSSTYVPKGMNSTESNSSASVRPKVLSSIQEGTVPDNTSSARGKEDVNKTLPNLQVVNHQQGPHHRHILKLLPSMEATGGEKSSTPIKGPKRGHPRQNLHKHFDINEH

T2: death receptor 6 (DR6) protein (UniProt O75509 42-349, labelled with RED-tris-NTA second-generation dye)
T2 construct: death receptor 6 (DR6), bought recombinant protein; It is probably a soluble extracellular construct, but that is a surmise; source: bought: Sino Biology
T2 sequence (looked up): T1 sequence (looked up)

T3: DR6 protein (Homo sapiens, UniProt O75509)
T3 construct: purchased Sino Biology, Inc. (Shanghai, China)
T3 sequence (O75509 42-655): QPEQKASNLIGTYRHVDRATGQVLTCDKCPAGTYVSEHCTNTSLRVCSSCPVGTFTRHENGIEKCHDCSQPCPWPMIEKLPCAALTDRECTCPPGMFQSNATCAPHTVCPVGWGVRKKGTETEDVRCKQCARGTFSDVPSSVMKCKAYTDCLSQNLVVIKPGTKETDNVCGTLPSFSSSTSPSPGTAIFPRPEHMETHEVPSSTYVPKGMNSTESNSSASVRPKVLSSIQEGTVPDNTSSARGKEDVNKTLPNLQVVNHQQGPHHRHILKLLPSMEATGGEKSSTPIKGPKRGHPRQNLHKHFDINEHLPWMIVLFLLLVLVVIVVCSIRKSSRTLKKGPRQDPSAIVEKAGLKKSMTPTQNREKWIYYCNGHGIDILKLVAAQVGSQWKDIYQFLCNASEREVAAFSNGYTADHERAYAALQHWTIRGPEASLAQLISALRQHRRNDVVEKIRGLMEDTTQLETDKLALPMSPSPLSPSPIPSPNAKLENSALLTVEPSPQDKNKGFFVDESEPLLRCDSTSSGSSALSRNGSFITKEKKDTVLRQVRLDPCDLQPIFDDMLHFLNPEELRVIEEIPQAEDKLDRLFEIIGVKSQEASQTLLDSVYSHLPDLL

B1: AHP-10 (peptide)
peptide: NGSTHER
notes: heptapeptide selected from a random phage display library against DR6; source: synthetic peptide (SPPS)
B2: AHP-23 (peptide)
peptide: GGLSMTR
notes: as for B1
B3: AHP-01 (peptide)
peptide: WTLSINS
notes: as for B1
B4: AHP-05 (peptide)
peptide: YYSGNNL
notes: as for B1
B5: AHP-13 (peptide)
peptide: SHTDTNQ
notes: as for B1
B6: AHP-03 (peptide)
peptide: YLPAPLP
notes: as for B1
B7: AHP-24 (peptide)
peptide: NHQRLLP
notes: as for B1
B8: AHP‐DRI‐12 (D‐retro‐inverso isomer of AHP‐12) (peptide)
peptide: [dP][dT][dT][dA][dD][dI][dT]
notes: Peptidomimetic made of D-amino acids; source: synthetic peptide (SPPS, HPLC purified)
B9: PEG‐tAHP‐DRI (tetra‐(D‐retro‐inverso isomer of AHP‐12) substitued 4‐arm PEG5k) (other)
peptide: [dP][dT][dT][dA][dD][dI][dT]C([maleimide-4‑arm PEG5k])
modifications: also: four peptides on one 4-arm PEG5k
notes: additional Cys residue at the C-terminal, coupled to the maleimide of the PEG arm; Four peptide chains on one 4-arm PEG5k, not a polypeptide oligomer; also called PEG‐tAHP‐12; PEGylated tetrameric AHP‐DRI‐12; source: synthetic peptide conjugated to 4-arm PEG5k maleimide, dialysed
B10: AHP‐12 (peptide)
peptide: TIDATTP
notes: heptapeptide selected from a random heptapeptide M13 phage display library against DR6; also called AHP-12 (TIDATTP); source: synthetic peptide (SPPS, HPLC purified)

Target: T1, death receptor 6 (DR6) protein
Assay: MST; DR6 protein labelled with RED-tris-NTA second-generation dye, final 50 x 10^-9 M; peptide prepared at 20 x 10^-6 M, diluted serially 1:1 in PBS-T over 12 tubes and mixed with an equal volume of labelled DR6; NanoTemper Monolith NT.015
Conditions: both partners purified

Molecule	Kd [nM]
B1	528
B2	4460
B3	1150
B4	1100
B5	1150
B6	688
B7	1090

Target: T2, death receptor 6 (DR6) protein
Assay: MST; DR6 protein labelled with RED-tris-NTA second-generation dye, final 50 × 10^-9 M; peptides prepared at 20 × 10^-6 M and diluted serially 1:1 over 12 tubes in PBS-T; NanoTemper Monolith NT.015
Conditions: both partners purified

Molecule	Kd [nM]
B8	225
B9	51.1
B10	322

Target: T1, death receptor 6 (DR6) protein
Assay: MST; DR6 protein labelled with RED-tris-NTA second-generation dye, final 50 x 10^-9 M; peptide prepared at 20 x 10^-6 M, diluted serially 1:1 in PBS-T over 12 tubes and mixed with an equal volume of labelled DR6; NanoTemper Monolith NT.015
Conditions: both partners purified
Remark: another data set of the same source

Molecule	Kd [nM]
B5	457 ± 11.6

Target: T3, DR6 protein
Assay: KD of DR6-targeting peptides for binding to DR6 protein by MST
Conditions: Tables S1 and S2, average of three independent experiments in triplicate, NB = No binding, read-out: KD ± SEM
Procedure: For labeling DR6 protein with Red‐tris‐NTA second‐generation dye, equal volume of DR6 protein (200 × 10^–9 M) and dye (100 × 10^–9 M) were mixed. The solution was incubated for 30 min at room temperature and centrifuged for 10 min at 4 ℃ and 15 000 × g. The DR6 protein was labeled and ready for the binding assay. Prepare 25 µL of the DR6‐targeting peptides at 20 × 10^–6 M and add 10 µL of the PBS‐T into the PCR tubes 2–12. Transfer 20 µL DR6‐targeting peptides into the PCR tube 1 and then transfer 10 µL of the DR6‐targeting peptides from tube 1 to tube 2 with a pipette and mix by pipetting up and down multiple times. Transfer 10 µL to tube 3 and mix. Repeat the procedure for tube 4–12. Add 10 µL of labeled protein to each tube (1–12) and mix by pipetting. The final DR6 protein concentration was 50× 10^−9 M. Load the capillaries and measure the samples by NanoTemper Monolith NT.015.^[ ^51 , ^52 ^]

Molecule	Kd [nM]
CC(C)C[C@@H](NC(=O)[C@H]1CCCN1C(=O)[C@@H](C)NC(=O)[C@H]1CCCN1C(=O)[C@@H](CC(C)C)NC(=O)[C@H](N)Cc1ccc(O)cc1)C(=O)N1CCC[C@@H]1C(=O)O [AHP-D-03] (H-[dY][dL][dP][dA][dP][dL][dP]-OH)	4734 ± 8.8
CC[C@@H](C)[C@@H](NC(=O)[C@H](N)[C@H](C)O)C(=O)N[C@H](CC(=O)O)C(=O)N[C@H](C)C(=O)N[C@@H](C(=O)N[C@@H](C(=O)N1CCC[C@@H]1C(=O)O)[C@H](C)O)[C@H](C)O [AHP-D-12] (H-[dT][dI][dD][dA][dT][dT][dP]-OH)	55100 ± 27600
C[C@H](O)[C@@H](NC(=O)[C@@H](CC(=O)O)NC(=O)[C@H](NC(=O)[C@@H](Cc1c[nH]cn1)NC(=O)[C@H](N)CO)[C@H](C)O)C(=O)N[C@H](CC(N)=O)C(=O)N[C@H](CCC(N)=O)C(=O)O [AHP-D-13] (H-[dS][dH][dT][dD][dT][dN][dQ]-OH)	3174 ± 8.8
CC(C)C[C@@H](NC(=O)[C@H]1CCCN1C(=O)[C@@H](C)NC(=O)[C@H]1CCCN1C(=O)[C@@H](CC(C)C)NC(=O)[C@H]1CCCN1)C(=O)N[C@H](Cc1ccc(O)cc1)C(=O)O [AHP-DRI-03] (H-[dP][dL][dP][dA][dP][dL][dY]-OH)	1219 ± 7.02
C[C@H](O)[C@@H](NC(=O)[C@@H](CC(=O)O)NC(=O)[C@H](NC(=O)[C@@H](CC(N)=O)NC(=O)[C@H](N)CCC(N)=O)[C@H](C)O)C(=O)N[C@H](Cc1c[nH]cn1)C(=O)N[C@H](CO)C(=O)O [AHP-DRI-13] (H-[dQ][dN][dT][dD][dT][dH][dS]-OH)	862.7 ± 6.59
AFMYSLP [AHP-14]	457 ± 11.6
AGHFSLW [AHP-21]	> 10000
ANLLYES [AHP-04]	> 10000
FQFRLQS [AHP-02]	> 10000
GFSHYFP [AHP-11]	> 10000
HSTAPQL [AHP-08]	> 10000
HSYPYTQ [AHP-17]	> 10000
KFLQVTN [AHP-16]	> 10000
KLGPVCP [AHP-06]	> 10000
KLVPEPS [AHP-09]	> 10000
LMTTKSD [AHP-22]	> 10000
LPRSPLA [AHP-20]	> 10000
MPPFRHD [AHP-19]	> 10000
TIPKYER [AHP-15]	> 10000
TTYMPKM [AHP-18]	> 10000
YSLHASP [AHP-07]	> 10000

Target: hERG potassium channel (Homo sapiens, UniProt Q12809)
Assay: Whole-cell patch clamp recording of hERG current
Format: cell-based
Conditions: cisapride as positive control
Procedure: In addition, some common adverse effects suffered by frequently used medications were also evaluated. The whole‐cell patch clamp recording technique was used to record the whole‐cell hERG‐potassium to measure the cardiac toxicity of peptidomimetic agents on hERG potassium channel by utilizing cisapride as positive control (Figure 6E; Figure S10, Supporting Information). […] Meanwhile, the blood biochemical indexes of ligand‐treated mice sacrificed on day 2 or day 15 were tested to examine the influences of peptidomimetic agents to liver and kidney (Figure S11, Supporting Information).

Chain of hERG potassium channel (Q12809 whole entry): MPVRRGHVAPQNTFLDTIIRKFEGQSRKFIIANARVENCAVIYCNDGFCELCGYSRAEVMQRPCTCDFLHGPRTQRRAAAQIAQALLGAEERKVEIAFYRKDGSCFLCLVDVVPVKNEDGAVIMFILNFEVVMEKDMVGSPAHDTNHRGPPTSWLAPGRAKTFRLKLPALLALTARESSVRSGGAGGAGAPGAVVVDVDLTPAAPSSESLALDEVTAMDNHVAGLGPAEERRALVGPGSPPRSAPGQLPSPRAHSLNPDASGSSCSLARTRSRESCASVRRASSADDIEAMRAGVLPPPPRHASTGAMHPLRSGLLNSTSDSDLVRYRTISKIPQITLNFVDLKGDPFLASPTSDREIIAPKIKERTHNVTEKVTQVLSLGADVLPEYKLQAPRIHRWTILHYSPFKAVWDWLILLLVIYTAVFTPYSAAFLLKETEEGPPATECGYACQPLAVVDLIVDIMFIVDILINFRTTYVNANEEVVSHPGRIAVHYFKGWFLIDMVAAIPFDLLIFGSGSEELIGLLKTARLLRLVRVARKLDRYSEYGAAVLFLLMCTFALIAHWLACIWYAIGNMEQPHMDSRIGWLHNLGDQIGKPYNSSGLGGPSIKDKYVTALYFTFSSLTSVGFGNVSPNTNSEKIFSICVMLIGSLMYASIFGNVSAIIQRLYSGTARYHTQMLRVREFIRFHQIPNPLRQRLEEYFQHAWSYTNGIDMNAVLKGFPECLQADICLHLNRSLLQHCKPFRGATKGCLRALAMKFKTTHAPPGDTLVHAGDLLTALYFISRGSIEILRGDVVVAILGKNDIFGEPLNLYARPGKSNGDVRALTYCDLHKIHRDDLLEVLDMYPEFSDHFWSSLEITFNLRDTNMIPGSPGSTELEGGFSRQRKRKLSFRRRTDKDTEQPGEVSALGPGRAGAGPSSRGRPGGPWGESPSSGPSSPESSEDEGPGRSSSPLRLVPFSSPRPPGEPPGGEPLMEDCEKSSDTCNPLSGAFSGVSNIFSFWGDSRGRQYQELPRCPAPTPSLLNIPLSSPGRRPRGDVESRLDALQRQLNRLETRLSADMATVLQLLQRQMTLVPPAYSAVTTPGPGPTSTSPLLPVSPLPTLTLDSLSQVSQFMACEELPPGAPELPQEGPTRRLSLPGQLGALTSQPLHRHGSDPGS

Molecule	inhibitory effect on hERG channels
CC[C@@H](C)[C@@H](NC(=O)[C@@H](CC(=O)O)NC(=O)[C@@H](C)NC(=O)[C@H](NC(=O)[C@H](NC(=O)[C@H]1CCCN1)[C@H](C)O)[C@H](C)O)C(=O)N[C@@H](C(=O)O)[C@H](C)O [AHP-DRI-12] (H-[dP][dT][dT][dA][dD][dI][dT]-OH)	no significant inhibitory effect

Test system: not listed separately
Assay: In vivo safety analysis in healthy mice
Parameters: species or system C57BL/6 mice
Conditions: healthy mice, intravenous, 0.2 µg g^–1 AHP-DRI-12; sacrificed day 2 or day 15
Procedure: For evaluating the toxicity of peptides in vivo, 6 week old healthy mice were intravenously injected with AHP‐DRI‐12 and PEG‐tAHP‐DRI (0.2 µg g^–1 AHP‐DRI‐12). After 2 and 15 days, mice were sacrificed and serum samples were collected for the biochemical analysis (ALT, AST, BRU, and URE). Tissue samples from various organs were collected for tissue sections. The tissue sections were analyzed by H&E staining and immunohistochemistry analysis.

Molecule	damage to liver or kidney, blood biochemical indexes (ALT, AST, BRU, URE)
CC[C@@H](C)[C@@H](NC(=O)[C@@H](CC(=O)O)NC(=O)[C@@H](C)NC(=O)[C@H](NC(=O)[C@H](NC(=O)[C@H]1CCCN1)[C@H](C)O)[C@H](C)O)C(=O)N[C@@H](C(=O)O)[C@H](C)O [AHP-DRI-12] (H-[dP][dT][dT][dA][dD][dI][dT]-OH)	could not cause any damage to liver or kidney

Test system: not listed separately
Assay: Pharmacokinetic study after intravenous injection
Format: in vivo
Conditions: SD rats, FITC-labeled, blood samples 0.5-72 h, microplate reader, n = 3
Procedure: To investigate the pharmacokinetic profile of AHP‐DRI‐12 and PEG‐tAHP‐DRI, SD rats were intravenously injected with FITC‐labeled AHP‐DRI‐12 and PEG‐tAHP‐DRI and blood samples were collected at 0.5, 1, 2, 4, 6, 24, 30, 48, 54, and 72 h. The DR6‐targeting peptide level of blood samples was measured by a microplate reader.

Molecule	half-life (T1/2) [h]
CC[C@@H](C)[C@@H](NC(=O)[C@@H](CC(=O)O)NC(=O)[C@@H](C)NC(=O)[C@H](NC(=O)[C@H](NC(=O)[C@H]1CCCN1)[C@H](C)O)[C@H](C)O)C(=O)N[C@@H](C(=O)O)[C@H](C)O [AHP-DRI-12] (H-[dP][dT][dT][dA][dD][dI][dT]-OH)	7.8

Test system: TCs over HUVECs monolayer
Assay: Transendothelial migration of TCs over HUVEC monolayer
Format: cell-based, human
Conditions: AHP-DRI-12 and PEG-tAHP-DRI 1 × 10^−6 M (AHP-DRI-12), Nec-1 30 × 10^–6 M, zVAD 100 × 10^–6 M; 48 h; compared with control; n = 3
Procedure: HUVECs (1 × 10^5) in DMEM were added into 24‐well plate transwell upper chambers and the medium was changed every 2 days. Using the EVOM resistance tester, the transendothelial resistance was measured daily. When the TEER resistance value was >200 Ωcm^2, the cells grew into a monolayer of tight connection. 2 × 10^5 GFP‐TCs were added into upper chambers. One milliliter DMEM containing 10% FBS was added into lower chambers overnight. AHP‐DRI‐12 and PEG‐tAHP‐DRI (1 ×10^–6 M AHP‐DRI‐12), Nec‐1 (30 × 10^–6 M), and zVAD (100 × 10^–6 M) were added in upper chambers, respectively. After incubation for 48 h, cells in lower chambers were observed by fluorescence microscope.^[ ^56 ^]

Molecule	TCs transendothelial migration
COC(=O)C[C@H](NC(=O)[C@H](C)NC(=O)[C@@H](NC(=O)OCc1ccccc1)C(C)C)C(=O)CF [zVAD, z‐VAD‐fmk, reference compound] (Cbz-Val-Ala-Asp(OMe)-CH2F)	increased number of migrated TCs
